Measured values from patent US8999295B2, “Technique for drug and gene delivery to the cell cytosol” (Brigham Young University, priority 2009, dated 2015).

Columns and labels:
[1] = cited from earlier work
[2] = Volume expansion ratio on liquid-to-vapor transformation; type: physicochemical; conditions: at body temperature
[3] = at body temperature; cited from earlier work

expansion ratio (liquid to vapor volume) [2] | Compound | solubility in water [1] | vapor pressure [3] [atm]
 | FC(F)(F)C(F)(F)C(F)(F)F [perfluoropropane] | 0.19 mol/m^3 | 
~259 | FC(F)(F)C(F)(F)C(F)(F)C(F)(F)C(F)(F)C(F)(F)F [perfluorohexane] | 2.7×10^−4 mol/m^3 | 0.48
approximately 103 | FC(F)(F)C(F)(F)C(F)(F)C(F)(F)C(F)(F)F [PFC5, perfluoropentane] |  | 
 | O=O [oxygen] | 1.32 mol/m^3 | 
